# Results published in article PMC3310271 (Journal of agricultural and food chemistry, 2011).
# Where two headings read alike, the source gives them in different places.
# Tests used:
# [1] = TIM-1 gastrointestinal model bioaccessibility of maqui berry anthocyanins; assay type: in vitro ADME; details: for Total Bioaccessible Anthocyanin Amount: maqui berry extract in TIM-1, jejunal + ileal absorption over 4 h
# [2] = first 4 h; cited from earlier work
# [3] = system: diabetic C57b1/6J mice; details: gavage; cited from earlier work
# [4] = system: colon cancer cells (HCT116); details: HCT116, among phenolic acids formed in TIM-2; cited from earlier work
# [5] = maqui berry extract in TIM-1, over 4 h
compound,measurement,setting,value
OC[C@H]1O[C@@H](Oc2cc3c(O)cc(O)cc3[o+]c2-c2cc(O)c(O)c(O)c2)[C@H](O[C@@H]2OC[C@@H](O)[C@H](O)[C@H]2O)[C@@H](O)[C@@H]1O [Delphinidin-3-sambubioside],Total Bioaccessibility as % of intake,[1],1.23 +/− 0.49 % of intake
same,Recovery in Ileal Efflux as a % of Intake,[1]; [5],0.26 +/− 0.24 % of intake
OC[C@H]1O[C@@H](Oc2cc3c(O)cc(O)cc3[o+]c2-c2ccc(O)c(O)c2)[C@H](O)[C@@H](O)[C@@H]1O [Cyanidin-3-glucoside],Recovery in ileostomy patients,[2],1.5%
same,Total Bioaccessibility as % of intake,[1],4.28 +/− 0.67 % of intake
COc1cc(-c2[o+]c3cc(O)cc(O)c3cc2O[C@@H]2O[C@H](CO)[C@@H](O)[C@H](O)[C@H]2O)cc(OC)c1O [malvidin-3-O-glucoside],Effect on blood glucose levels,[3],significantly hypoglycemic
"Cyanidin-3-sambubioside-5-glucoside + cyanidin3,5-diglucoside",Total Bioaccessibility as % of intake,[1],17.84 +/− 2.61 % of intake
"O=C(O)Cc1ccc(O)c(O)c1 [3,4-dihydroxyphenylacetic acid]",Antiproliferative activity,[4],antiproliferative activity
"OC[C@H]1O[C@@H](Oc2cc3c(O[C@@H]4O[C@H](CO)[C@@H](O)[C@H](O)[C@H]4O)cc(O)cc3[o+]c2-c2cc(O)c(O)c(O)c2)[C@H](O)[C@@H](O)[C@@H]1O [Delphinidin-3,5-diglucoside]",Total Bioaccessible Anthocyanin Amount,[1],1.17 ± 0.57 mg
same,Recovery in Ileal Efflux as a % of Intake,[1]; [5],0.77 +/− 0.77 % of intake
same,Total Bioaccessibility as % of intake,[1]; [5],3.61 +/− 1.74 % of intake
same,Total Bioaccessibility as % of intake,"[1]; maqui berry extract in TIM-1, over 4 h, listed as delphinidin-3,5-diglucoside",3.6 % of intake
OC[C@H]1O[C@@H](Oc2cc(O)cc3[o+]c(-c4cc(O)c(O)c(O)c4)c(O[C@@H]4O[C@H](CO)[C@@H](O)[C@H](O)[C@H]4O[C@@H]4OC[C@@H](O)[C@H](O)[C@H]4O)cc23)[C@H](O)[C@@H](O)[C@@H]1O [Delphinidin-3-sambubioside-5-glucoside],Recovery in Ileal Efflux as a % of Intake,[1]; [5],0.32+/− 0.32 % of intake
OC[C@H]1O[C@@H](Oc2cc3c(O)cc(O)cc3[o+]c2-c2cc(O)c(O)c(O)c2)[C@H](O)[C@@H](O)[C@@H]1O [Delphinidin-3-glucoside],Total Bioaccessible Anthocyanin Amount,[1],3.02 ± 1.83 mg
same,Recovery in Ileal Efflux as a % of Intake,[1]; [5],0.87 +/− 0.78 % of intake
same,Total Bioaccessibility as % of intake,[1]; [5],3.15 +/− 1.91 % of intake
